Compound in experiment [1]: C[C@@H](Oc1cc(-c2cnn(C3CCNCC3)c2)cnc1N)c1c(Cl)ccc(F)c1Cl
Description: surviving fraction relative to DMSO-only wells; higher = less growth inhibition. To be noted: exposure time: 5 days. The essentials:
(§1)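 After seeding at 250–500 cells per well in 384-well plates and a 24-hour wait, log-phase tumour cell lines were exposed without interruption for five days to inhibitors at 0.5, 1, 5, 10, 50, 100, 500 and 1000 nM. CellTiter-Glo luminescence was recorded after 10 minutes at room temperature. Viability is reported as surviving fraction, the luminescence normalised to the median of DMSO-only wells.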

Compound in a further experiment: COc1cc2c(Oc3ccc(NC(=O)C4(C(=O)Nc5ccc(F)cc5)CC4)cc3F)ccnc2cc1OCCCN1CCOCC1 [FORETINIB]
Described as above. Particulars: exposure time: 5 days. The method in brief:
as §1

± gives the standard deviation of the averaged measurements.

As for HCC70 BREAST, the surviving fraction in experiment [1] (1 nM) stood at 0.95 ± 0.095; in experiment [1] (100 nM) it was 1.14 ± 0.12; in experiment [1] (500 nM), 0.964 ± 0.04; in experiment [1] (1000 nM) it was 0.736 ± 0.034; in the experiment with FORETINIB (0.5 nM), 1.08 ± 0.04; with FORETINIB (1 nM) it was 1.13 ± 0.023. The surviving fraction stood at 1.13 ± 0.043 with FORETINIB (5 nM); 1.11 ± 0.046 with FORETINIB (10 nM); 1.17 ± 0.066 in the experiment with FORETINIB (50 nM); 1.2 ± 0.044 with FORETINIB (100 nM); 1.1 ± 0.1 in the experiment with FORETINIB (500 nM); 0.718 ± 0.16 with FORETINIB (1000 nM).

G292 BONE: the surviving fraction in experiment [1] (0.5 nM) turned out to be 0.961 ± 0.025; in experiment [1] (1 nM), 0.971 ± 0.032; in experiment [1] (5 nM) it was 0.931 ± 0.088; in experiment [1] (50 nM), 0.948 ± 0.038; in experiment [1] (100 nM), 0.871 ± 0.011; in experiment [1] (500 nM), 0.564 ± 0.031. Moreover, the surviving fraction was determined as 0.38 ± 0.01 in experiment [1] (1000 nM); 1.01 ± 0.049 in the experiment with FORETINIB (0.5 nM); 0.963 ± 0.051 with FORETINIB (1 nM); 1.04 ± 0.015 in the experiment with FORETINIB (5 nM); 1.02 ± 0.046 with FORETINIB (10 nM); 0.905 ± 0.03 with FORETINIB (50 nM). Further, the surviving fraction was 0.839 ± 0.023 in the experiment with FORETINIB (100 nM), 0.351 ± 0.018 with FORETINIB (500 nM) and 0.171 ± 0.02 with FORETINIB (1000 nM).

Turning to HCC38 BREAST, the surviving fraction in experiment [1] (0.5 nM) is 0.862 ± 0.14; in experiment [1] (5 nM) it was 0.928 ± 0.18; in experiment [1] (10 nM), 0.928 ± 0.16; in experiment [1] (50 nM), 1.09 ± 0.22; in experiment [1] (100 nM), 1.13 ± 0.23; in experiment [1] (1000 nM), 0.66 ± 0.14. Besides, the surviving fraction with FORETINIB (0.5 nM) was determined as 1.05 ± 0.18; with FORETINIB (1 nM) it was 1.01 ± 0.34; with FORETINIB (5 nM), 0.885 ± 0.2; with FORETINIB (10 nM), 1.11 ± 0.24; with FORETINIB (50 nM), 1.03 ± 0.41; with FORETINIB (100 nM), 0.901 ± 0.15. Further, the surviving fraction with FORETINIB (500 nM) is 0.521 ± 0.077; with FORETINIB (1000 nM), 0.428 ± 0.12.

With HMT3552 BREAST, the surviving fraction came to 1.17 in experiment [1] (50 nM); 0.393 in experiment [1] (500 nM); 0.211 in experiment [1] (1000 nM); 1.02 ± 0.069 in the experiment with FORETINIB (0.5 nM); 1.03 ± 0.05 in the experiment with FORETINIB (1 nM); 1.02 ± 0.017 with FORETINIB (5 nM). The surviving fraction was 0.928 ± 0.12 in the experiment with FORETINIB (10 nM); 0.955 ± 0.058 in the experiment with FORETINIB (50 nM); 0.971 ± 0.013 with FORETINIB (100 nM); 0.599 ± 0.034 in the experiment with FORETINIB (500 nM); 0.114 ± 0.0027 in the experiment with FORETINIB (1000 nM).

For the test system CCK81 LARGE INTESTINE, the surviving fraction stood at 0.867 ± 0.085 with FORETINIB (0.5 nM); 0.729 ± 0.084 with FORETINIB (1 nM); 0.719 ± 0.059 in the experiment with FORETINIB (5 nM); 0.726 ± 0.13 in the experiment with FORETINIB (10 nM); 0.793 ± 0.065 with FORETINIB (50 nM); 0.757 ± 0.025 with FORETINIB (100 nM). Moreover, the surviving fraction came to 0.559 ± 0.043 in the experiment with FORETINIB (500 nM) and 0.338 ± 0.083 with FORETINIB (1000 nM).

As to HS578T BREAST, the surviving fraction in experiment [1] (1 nM) was 0.827 ± 0.12; in experiment [1] (5 nM), 0.845 ± 0.063; in experiment [1] (10 nM) it was 0.959 ± 0.16; in experiment [1] (50 nM), 0.936 ± 0.1; in experiment [1] (100 nM) it was 0.85 ± 0.1; in experiment [1] (500 nM), 0.552 ± 0.13. Further, the surviving fraction in experiment [1] (1000 nM) was 0.563 ± 0.11; with FORETINIB (0.5 nM), 1.01 ± 0.084; with FORETINIB (1 nM), 1.09 ± 0.079; with FORETINIB (5 nM) it was 1.2 ± 0.19; with FORETINIB (10 nM), 1.18 ± 0.038; in the experiment with FORETINIB (50 nM), 1.16 ± 0.17. The surviving fraction was found to be 1.12 ± 0.21 with FORETINIB (100 nM), 0.655 ± 0.088 in the experiment with FORETINIB (500 nM) and 0.585 ± 0.039 with FORETINIB (1000 nM).

As to HMLE3 BREAST, the surviving fraction in experiment [1] (0.5 nM) was found to be 0.873 ± 0.031; in experiment [1] (1 nM), 0.829 ± 0.028; in experiment [1] (50 nM), 0.941 ± 0.063; in experiment [1] (100 nM), 0.843 ± 0.019; in experiment [1] (500 nM), 0.599 ± 0.051; in experiment [1] (1000 nM), 0.38 ± 0.011. Also, the surviving fraction in the experiment with FORETINIB (0.5 nM) came to 1.08 ± 0.031; in the experiment with FORETINIB (1 nM), 1.15 ± 0.075; with FORETINIB (5 nM), 1.11 ± 0.023; with FORETINIB (10 nM), 1.07 ± 0.011; with FORETINIB (50 nM) it was 0.913 ± 0.1; in the experiment with FORETINIB (100 nM), 0.86 ± 0.054. In addition, the surviving fraction with FORETINIB (500 nM) came to 0.558 ± 0.076; with FORETINIB (1000 nM) it was 0.168 ± 0.023.

The values are drawn from the supplement of paper PMC6045584.
